Reference: patent US20220273678A1 (priority 2020, published 2022)
Entries after “also recorded” stand apart in the source; their conditions may differ. Where a name gives a salt, the structure may show the parent alone. Read-outs that look alike come from different tables or passages of the source.

How the values were obtained:
[1] = test system: IL-6, IL-10; type: cell-based, human
[2] = test system: Calu3 cells; test: XTT cell cytotoxicity assay in uninfected Calu3 cells; type: cell-based, human
Procedure: (§1) To measure cell viability to determine if there was any treatment-induced cytotoxicity, cells were plated and treated with drugs as described above. Cells were exposed to the same dilution series created for the in vitro efficacy studies. As above, vehicle-treated cells served as the 0% cytotoxicity control. After 24 h, cell viability was measured on a Synergy 2 Biotek microplate reader (Biotek Inc) via the XTT Cell Proliferation Assay Kit (ATCC® 30-1011K™) according to the manufacturer's protocol. Similar data were obtained in three independent experiments.

[3] = test system: SARS-CoV-2; test: microbe, parasite or virus in culture; type: cell-based
[4] = test system: IL-6, IL-1β, IL-8, IL-10, TNF-α; type: cell-based, human; settings: 0.25 μM brusatol; for release of IL-6 from infected cells: 10 μM DMF, 10-100 μM DMF+100-1000 nM Mito-MES
[5] = test system: Nrf2, Keap1, HO-1; test: Nrf2, Keap1 and HO-1 protein levels in Calu3 cells, flow cytometry; type: cell-based, human; settings: for HO-1 protein levels: Calu3, 10 μM DMF, 100-1000 nM Mito-MES, Mito-MES with DMF, 0.25 μM Brusatol, 10 μM 4F; for protein levels of Keap (Keap1) / protein levels of Nrf2: infected and uninfected Calu3
[6] = test system: icSARS-CoV-2-mNG; type: cell-based, SARS-CoV-2
[7] = test system: uninfected cells; test: XTT cell cytotoxicity assay in similarly treated uninfected cultures (Mito-TEMPO, 4F); type: cell-based; settings: Mito-TEMPO 10-1000 nM
Procedure: as §1

[8] = test system: icSARS-CoV-2-mNG; type: cell-based, SARS-CoV-2; remark: listed apart in the source
[9] = test system: hACE2 HEK293T cells and ALI HAE cultures; settings: 1000 nM

## COC1=C(OC)C(=O)C(C/C=C(\C)CC/C=C(\C)CC/C=C(\C)CC/C=C(\C)CC/C=C(\C)CC/C=C(\C)CC/C=C(\C)CC/C=C(\C)CC/C=C(\C)CCC=C(C)C)=C(C)C1=O [CoQ10, Coenzyme Q10]
[1]
  secretion / release of IL-6: reduced subsequent release of IL-6

## COC(=O)/C=C/C(=O)OC [DMF, dimethyl fumarate]
[2]; 100 μM DMF, 24 h
  cytotoxicity, XTT cell cytotoxicity assay: cytotoxic
[3]; Calu3, 10 μM DMF pretreatment 24 h, alone or with 10-1000 nM Mito-MES
  release of progeny SARS-CoV-2 virus particles, TCID50 assay: had anti-SARS-CoV-2 activity; also recorded: reduction in subsequent release of progeny SARS-CoV-2 virus particles
[3]; DMF 10 μM, Mito-MES 100 nM, Mito-MES 100 nM+DMF 10 μM, […]
  Viral replication by flow cytometry at 48 hpi in Calu3 cells: 5.4%
[3]; DMF 100 μM, Mito-MES 100 nM+DMF 100 μM, control 9.3%
  Viral replication by flow cytometry at 48 hpi in Calu3 cells: 2.1%
[4]
  release of IL-6 from infected cells: reduction in subsequent release of IL-6
[5]
  HO-1 protein levels: increased protein levels of heme oxygenase-1 (HO-1)
  protein levels of Keap (Keap1): reduced protein levels of the endogenous Nrf2 inhibitor, Keap1; also recorded: reduced protein levels of Keap
  protein levels of Nrf2: did not impact protein levels of Nrf2

## CC1(C)CC(NC(=O)C[P+](c2ccccc2)(c2ccccc2)c2ccccc2)CC(C)(C)N1[O] [Mito-TEMPO]
[6]
  antiviral activity against fluorescent SARS-CoV-2: potent and similar antiviral activity
[7]
  cytotoxicity, XTT cell cytotoxicity assay: no observed cytotoxicity
[8]
  antiviral activity against fluorescent SARS-CoV-2: potent and similar antiviral activity

## CCCCCCCCCC[P+](c1ccccc1)(c1ccccc1)c1ccccc1.[Br-] [dTPP]
[2]; uninfected Calu3, dTPP 1000 nM
  cytotoxicity, XTT assay: not cytotoxic
[3]; Calu3, dTPP 1000 nM
  antiviral activity, viral replication by TCID50-assay: Antiviral activity was observed
[9]
  cytotoxicity: not cytotoxic
[1]
  secretion / release of IL-6: reduced subsequent release of IL-6

## brusatol
[3]; 10 nM Mito-MES+10 μM DMF, 0.25 μM brusatol
  percent of infected Calu3 cells positive for the N protein, flow cytometry (data not shown): directly enhanced SARS-CoV-2 infection
[3]; Calu3, 0.25 μM brusatol 24 h
  effect of brusatol on the antiviral effect of DMF and Mito-MES: inhibited the antiviral effect of both DMF alone and Mito-MES
[3]; Calu3, 0.25 μM brusatol pretreatment
  release of progeny virus / SARS-CoV-2 replication, TCID50: significantly increased SARS-CoV2 replication; also recorded: significantly increased subsequent release of progeny SARS-CoV-2 virus particles
[3]; Mito-MES 1000 nM, Brusatol 250 nM, Mito-MES 1000 nM+Brusatol 250 nM
  Viral replication by flow cytometry at 48 hpi in Calu3 cells: 39.9%
[4]; Calu3
  effect of brusatol on the anti-inflammatory effect of Mito-MES (IL-6): inhibited the anti-inflammatory effect of Mito-MES
[4]
  release of IL-6 from infected cells: significantly increased subsequent release of IL-6
[5]
  HO-1 protein levels: increased the HO-1 protein levels
  protein levels of Keap (Keap1): increased protein levels of Keap
  protein levels of Nrf2: reduced protein levels of Nrf2
